Measurements taken from patent US20100247538A1, “IL-18 and Protein Kinase R Inhibition for the Treatment of COPD” (Yale University, priority 2007, published 2010).
“Also recorded” adds a separate entry of the source.

Legend:
[1] = tested on: murine lung; test: BAL inflammation (BAL cell recovery) after PAMP administration in mice breathing room air or exposed to cigarette smoke; format: in vivo; details: for BAL inflammation: interaction with cigarette smoke (CS-exposed vs non-CS animals): CS exposure 2 weeks before and during dosing; for number of cells recovered per ml of BAL fluid: control (non-CS) animals, dose series
Description: During the first week they received a half cigarette, twice a day, to allow for acclimation. During the remainder of the exposure they received three cigarettes per day (one cigarette per session/three sessions per day).
(§1) CS exposure was continued during this interval.
Mice were sacrificed using intraperitoneal ketamine/xylazine injection and the trachea was cannulated and perfused with two 0.9 ml aliquots of cold saline. The cellular contents and BAL fluid were separated by centrifugation and the BAL fluid was stored in aliquots at −80° C.

[2] = tested on: murine lung; test: Alveolar remodeling / emphysema (mean chord length, lung morphometry); details: for tissue / alveolar remodeling: control or CS-exposed animals
[3] = tested on: murine lung; test: TUNEL evaluation of lung cell apoptosis; format: in vivo, mice
Description: End labeling of exposed 3′-OH ends of DNA fragments in paraffin-embedded tissue was undertaken with the TUNEL in situ cell death detection kit AP (Roche Diagnostics) using the instructions provided by the manufacturer. Staining specificity was assessed by comparing the signal that was seen when terminal transferase was included and excluded from the reaction. After staining, a minimum of 20 fields of alveoli were randomly chosen, and 500 nuclei were counted per lung. The labeled cells were expressed as a percentage of total nuclei.
as §1
End labeling of exposed 3′-OH ends of DNA fragments in paraffin embedded tissue was undertaken with the TUNEL in situ cell death detection kit AP (Roche Diagnostics, Indianapolis, Ind.) using the instructions provided by the manufacturer. Staining specificity was assessed by comparing the signal that was seen when terminal transferase was included and excluded from the reaction. After staining, a minimum of 10 fields of alveoli was randomly chosen and 300 nuclei of structural cells were counted per lung. The labeled cells were expressed as a percentage of total nuclei.

[4] = tested on: IL-18; test: BAL IL-18 ELISA; format: in vivo, mice
Description: Mice were euthanized, the trachea was isolated by blunt dissection, and tubing was secured in the airway. Three volumes of 0.6 ml of PBS were then instilled and gently aspirated and pooled. Each BAL fluid sample was centrifuged, and the supernatants were stored in −70° C. until used. Lung lysates were also prepared. The levels of IL-18 were determined using a commercial ELISA kit (R&D Systems) as per the manufacturer's instructions.
as §1
(§2) The levels of BAL IL-18 (MBL, Japan), IL-12/IL-23p40 and IFN-γ (R&D Systems) were determined using commercial ELISA kits as per the manufacturer's instructions.

[5] = tested on: IL-12/23 p40; test: BAL IL-12/IL-23p40 ELISA; format: in vivo, mice; details: after second dose
Description: as §1, §2

[6] = tested on: IFN-γ; test: BAL IFN-γ ELISA; format: in vivo, mice; details: for IFN-γ level: after second dose
Description: as §1, §2

[7] = tested on: PKR; test: Immunoblot of phospho-PKR in whole lung lysates; format: in vivo, mice
Description: as §1
Whole lung lysates were prepared and the total protein content of each was measured using the DC protein assay reagents (Bio-Rad Inc.). Equal amounts of sample proteins were fractionated on 4-15% SDS-PAGE gels under reducing conditions and transferred to polyvinylidene difluoride membranes. The membranes were then incubated in blocking buffer (5% w/v nonfat dry milk in TBS/0.05% Tween) for 1 hour at room temperature. The membranes were then incubated with primary antibodies overnight at 4° C., washed three times in TBS/0.05% Tween and incubated for 2 h at room temperature with appropriate secondary antibodies. Immunoreactive signal was detected using a chemiluminescent procedure (ECL Western blotting detection system; Amersham Life Science) according to the manufacturer's instructions.

[8] = tested on: IL-18, IL-12/23 p40 and Type I and Type II IFNs; test: Production of IL-18, IL-12/23 p40 and Type I and Type II IFNs in BAL (stated jointly); format: in vivo, mice; details: versus vehicle controls

CCNCc1nc2c(N)nc3ccccc3c2n1CC(C)(C)O [GDQ, gardiquimod]
BAL inflammation: interaction with cigarette smoke (CS-exposed vs non-CS animals) [1]: not significantl
BAL inflammation ([1]; control animals, 5 μg doses): no effect
tissue / alveolar remodeling [2]: no effect; also recorded: did not have similar effects

CC(C)Cn1cnc2c(N)nc3ccccc3c21 [IMQ, imiquimod]
tissue / alveolar remodeling [2]: did not have similar effects

lipopoly-saccharide [LPS]
BAL inflammation: interaction with cigarette smoke (CS-exposed vs non-CS animals) [1]: not a significant difference
number of cells recovered per ml of BAL fluid [1]: dose dependent
tissue / alveolar remodeling [2]: no tissue remodeling was observed; also recorded: did not have similar effects

poly(I:C)
BAL inflammation: interaction with cigarette smoke (CS-exposed vs non-CS animals) [1]: significantly exacerbated; also recorded: synergistic
dose giving significant interaction with CS on inflammation ([1]; CS-exposed mice): ≥ 15 µg
number of cells recovered per ml of BAL fluid [1]: dose dependent
TUNEL score ([3]; IL-18Rα+/+, IFN-γ+/+, PKR+/+ animals, CS): about 12%
TUNEL score ([3]; IL-18Rα+/+, IFN-γ+/+, PKR+/+ animals, room air): about 8%
TUNEL score ([3]; IL-18Rα−/−, IFN-γ−/− and PKR−/− animals, CS): about 9%
TUNEL value ([3]; IL-18Rα−/−, IFN-γ−/− and PKR−/− animals, room air): about 6.5%
TUNEL score ([3]; combined with CS): about 17
TUNEL score ([3]; given alone (no CS)): about 8
IL-18 level ([4]; CS animals, second dose): about 100 pg/ml
IL-18 level ([4]; both CS and non-CS animals, by week 4): 90 to 100 pg/mL
IL-18 level ([4]; non-CS animals, second dose): about 20 pg/ml
IL-12/23 level ([5]; CS animals, relative to non-CS): about twice that
IL-12/23 level ([5]; non-CS animals): about 3000 pg/ml
IFN-γ level ([6]; CS animals): about 90 pg/ml
IFN-γ expression ([6]; IL-18Rα−/− animals, CS): about 35 pg/ml
IFN-γ level ([6]; control animals): about 10 pg/ml
IFN-γ expression ([6]; wild-type animals, CS): about 110 pg/ml
IFN-γ expression ([6]; wild-type animals, no CS): about 35 pg/ml
dose at which enhanced PKR activation was observed ([7]; CS-exposed mice): ≥ 15 µg/mL
phospho-PKR expression ([7]; wild-type animals, given alone): modestly up-regulated
phospho-PKR expression / PKR activation ([7]; wild-type animals, with CS exposure): further increase; also recorded: greatly enhanced
stimulation of IL-18, IL-12/23 p40 and Type I and Type II IFNs [8]: potent stimulator
morphometrically determined alveolar chord length ([2]; 4 doses in CS-exposed mice): significant increases
increase in alveolar size ([2]; 4 doses in RA-exposed mice): did not achieve statistical significance
dose at which CS interaction on alveolar/airway remodeling could be appreciated ([2]; CS-exposed mice): ≥ 15 µg
mean chord length ([2]; IL-18Rα−/− and IFN-γ−/− animals exposed to CS): about 70 microns
mean chord length ([2]; PKR (null) animals exposed to CS): about 70 microns
mean chord length ([2]; PKR+/+ animals exposed to CS): about 85 microns
mean chord length ([2]; PKR+/+ animals, no CS): about 65 microns
mean chord length ([2]; PKR−/− animals, no CS): ~62 microns
mean chord length ([2]; administered and exposed to CS, controls about 55 microns): about 90 microns
mean chord length ([2]; wild-type, IL-18Rα−/− and IFN-γ−/− animals, no CS): about 60 microns
